Reference: patent publication US9695155B2, “Herbicidal substituted pyrimidinyloxy benzene compounds” (E. I. DU PONT DE NEMOURS AND COMPANY, priority 2013, dated 2017)

How the values were obtained:
large (Lg) crabgrass [1] = assay: Test A postemergence; type: in vivo, Digitaria sanguinalis
Outline: (§1)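 Visual 0–100 rating (100 = complete control) taken about 10 d post-treatment relative to untreated checks. Preemergence: directed soil spray on sown loam/sand pots. Postemergence: seedlings 2–10 cm, 1–2 leaf. Non-phytotoxic solvent formulation with surfactant.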

morningglory [2] = assay: Test A preemergence; type: in vivo, Ipomoea spp.; settings: for Plant response rating, Morningglory: 125 g ai/ha, 0 to 100 scale where 0 is no effect and 100 is complete control; for Morningglory plant response rating: 500 g ai/ha, 0 to 100 scale, 0 no effect, 100 complete control, approx. 10 days
Outline: as §1

Heteranthera limosa = assay: Test B flooded paddy test; type: in vivo; settings: Flood, 250 g ai/ha; 0 to 100 scale where 0 is no effect and 100 is complete control
Outline: (§2)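 Greenhouse flooded-pot test: compounds dosed into 3 cm standing water over 2-leaf plants, flood held constant. Rated visually after 13–15 days on 0–100 (complete control = 100); a dash marks no test result.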

giant foxtail [3] = assay: Test A postemergence; type: in vivo, Setaria faberii; settings: 0 to 100 scale where 0 is no effect and 100 is complete control
Outline: as §1

pigweed [4] = assay: Test A postemergence; type: in vivo, Amaranthus retroflexus; settings: 0 to 100 scale where 0 is no effect and 100 is complete control
Outline: as §1

sedge, umbrella = assay: Test B flooded paddy test; type: in vivo, Cyperus difformis; settings: Flood, 250 g ai/ha; 0 to 100 scale where 0 is no effect and 100 is complete control
Outline: as §2

wheat [5] = assay: Test A postemergence; type: in vivo, Triticum aestivum; settings: 0 to 100 scale where 0 is no effect and 100 is complete control
Outline: as §1

barnyardgrass [6] = assay: Test A preemergence; type: in vivo, Echinochloa crus-galli; settings: for Plant response rating, Barnyardgrass: 125 g ai/ha, 0 to 100 scale where 0 is no effect and 100 is complete control; for Barnyardgrass plant response rating: 500 g ai/ha, 0 to 100 scale, 0 no effect, 100 complete control, approx. 10 days
Outline: as §1

velvetleaf [7] = assay: Test A preemergence; type: in vivo, Abutilon theophrasti; settings: for Plant response rating, Velvetleaf: 125 g ai/ha, 0 to 100 scale where 0 is no effect and 100 is complete control; for Velvetleaf plant response rating: 500 g ai/ha, 0 to 100 scale, 0 no effect, 100 complete control, approx. 10 days
Outline: as §1

rice = assay: Test B flooded paddy test; type: in vivo, Oryza sativa; settings: Flood, 250 g ai/ha; 0 to 100 scale where 0 is no effect and 100 is complete control
Outline: as §2

barnyardgrass [8] = assay: Test B flooded paddy test; type: in vivo, Echinochloa crus-galli; settings: Flood, 250 g ai/ha; 0 to 100 scale where 0 is no effect and 100 is complete control
Outline: as §2

corn [9] = assay: Test A preemergence; type: in vivo, Zea mays; settings: for Plant response rating, Corn: 125 g ai/ha, 0 to 100 scale where 0 is no effect and 100 is complete control; for Corn plant response rating: 500 g ai/ha, 0 to 100 scale, 0 no effect, 100 complete control, approx. 10 days
Outline: as §1

giant foxtail [10] = assay: Test A preemergence; type: in vivo, Setaria faberii; settings: for Plant response rating, Foxtail, Giant: 125 g ai/ha, 0 to 100 scale where 0 is no effect and 100 is complete control; for Foxtail, Giant plant response rating: 500 g ai/ha, 0 to 100 scale, 0 no effect, 100 complete control, approx. 10 days
Outline: as §1

velvetleaf [11] = assay: Test A postemergence; type: in vivo, Abutilon theophrasti; settings: 0 to 100 scale where 0 is no effect and 100 is complete control
Outline: as §1

corn [12] = assay: Test A postemergence; type: in vivo, Zea mays
Outline: as §1

morningglory [13] = assay: Test A postemergence; type: in vivo, Ipomoea spp.; settings: 0 to 100 scale where 0 is no effect and 100 is complete control
Outline: as §1

barnyardgrass [14] = assay: Test A postemergence; type: in vivo, Echinochloa crus-galli
Outline: as §1

wheat [15] = assay: Test A preemergence; type: in vivo, Triticum aestivum; settings: for Plant response rating, Wheat: 125 g ai/ha, 0 to 100 scale where 0 is no effect and 100 is complete control; for Wheat plant response rating: 500 g ai/ha, 0 to 100 scale, 0 no effect, 100 complete control, approx. 10 days
Outline: as §1

pigweed [16] = assay: Test A preemergence; type: in vivo, Amaranthus retroflexus; settings: for Plant response rating, Pigweed: 125 g ai/ha, 0 to 100 scale where 0 is no effect and 100 is complete control; for Pigweed plant response rating: 500 g ai/ha, 0 to 100 scale, 0 no effect, 100 complete control, approx. 10 days
Outline: as §1

large (Lg) crabgrass [17] = assay: Test A preemergence; type: in vivo, Digitaria sanguinalis; settings: for Plant response rating, Crabgrass, Large: 125 g ai/ha, 0 to 100 scale where 0 is no effect and 100 is complete control; for Crabgrass, Large plant response rating: 500 g ai/ha, 0 to 100 scale, 0 no effect, 100 complete control, approx. 10 days
Outline: as §1

[18] = 125 g ai/ha, 0 to 100 scale where 0 is no effect and 100 is complete control
[19] = 500 g ai/ha, 0 to 100 scale, 0 no effect, 100 complete control

N#Cc1cccc(Oc2ncc(Br)cn2)c1-n1cc(Cl)cn1 [Compound 71]
70: Plant response rating, Crabgrass, Large (large (Lg) crabgrass [1]; [18]) | Plant response rating, Sedge, Umbrella (sedge, umbrella) | Plant response rating, Velvetleaf (velvetleaf [7]) | Plant response rating, Morningglory (morningglory [13]; 125 g ai/ha)
100: Plant response rating, Crabgrass, Large (large (Lg) crabgrass [1]; [19]) | Plant response rating, Pigweed (pigweed [4]; 125 g ai/ha) | Plant response rating, Pigweed (pigweed [4]; 500 g ai/ha) | Barnyardgrass plant response rating (barnyardgrass [6]) | Velvetleaf plant response rating (velvetleaf [7]) | Plant response rating, Foxtail, Giant (giant foxtail [10]) | Foxtail, Giant plant response rating (giant foxtail [10]) | Plant response rating, Velvetleaf (velvetleaf [11]; 500 g ai/ha) | Plant response rating, Pigweed (pigweed [16]) | Pigweed plant response rating (pigweed [16]) | Plant response rating, Crabgrass, Large (large (Lg) crabgrass [17]) | Crabgrass, Large plant response rating (large (Lg) crabgrass [17])
90: Plant response rating, Morningglory (morningglory [2]) | Morningglory plant response rating (morningglory [2]) | Plant response rating, Foxtail, Giant (giant foxtail [3]; 500 g ai/ha) | Plant response rating, Velvetleaf (velvetleaf [11]; 125 g ai/ha) | Plant response rating, Morningglory (morningglory [13]; 500 g ai/ha) | Plant response rating, Barnyardgrass (barnyardgrass [14]; [19])
80: Plant response rating, Foxtail, Giant (giant foxtail [3]; 125 g ai/ha) | Plant response rating, Barnyardgrass (barnyardgrass [14]; [18])
10: Plant response rating, Wheat (wheat [5]; 125 g ai/ha)
20: Plant response rating, Wheat (wheat [15])
30: Plant response rating, Rice (rice) | Plant response rating, Corn (corn [9]) | Plant response rating, Corn (corn [12]; [18])
40: Plant response rating, Wheat (wheat [5]; 500 g ai/ha) | Corn plant response rating (corn [9]) | Wheat plant response rating (wheat [15])
60: Plant response rating, Barnyardgrass (barnyardgrass [6]) | Plant response rating, Corn (corn [12]; [19])
0: Plant response rating, Ducksalad (Heteranthera limosa) | Plant response rating, Barnyardgrass (barnyardgrass [8])

Cc1cnc(Oc2cccc(C#N)c2-n2cc(Br)cn2)nc1 [Compound 76]
20: Plant response rating, Corn (corn [9])
50: Plant response rating, Barnyardgrass (barnyardgrass [6])
0: Plant response rating, Morningglory (morningglory [2]) | Plant response rating, Wheat (wheat [5]; 125 g ai/ha) | Plant response rating, Rice (rice) | Plant response rating, Barnyardgrass (barnyardgrass [8]) | Plant response rating, Wheat (wheat [15])
100: Plant response rating, Crabgrass, Large (large (Lg) crabgrass [1]; [19]) | Plant response rating, Pigweed (pigweed [4]; 500 g ai/ha) | Barnyardgrass plant response rating (barnyardgrass [6]) | Velvetleaf plant response rating (velvetleaf [7]) | Foxtail, Giant plant response rating (giant foxtail [10]) | Plant response rating, Velvetleaf (velvetleaf [11]; 500 g ai/ha) | Plant response rating, Barnyardgrass (barnyardgrass [14]; [19]) | Plant response rating, Pigweed (pigweed [16]) | Pigweed plant response rating (pigweed [16]) | Plant response rating, Crabgrass, Large (large (Lg) crabgrass [17]) | Crabgrass, Large plant response rating (large (Lg) crabgrass [17])
10: Plant response rating, Wheat (wheat [5]; 500 g ai/ha) | Plant response rating, Corn (corn [12]; [18])
90: Plant response rating, Foxtail, Giant (giant foxtail [3]; 500 g ai/ha) | Plant response rating, Pigweed (pigweed [4]; 125 g ai/ha) | Plant response rating, Velvetleaf (velvetleaf [7]) | Plant response rating, Morningglory (morningglory [13]; 500 g ai/ha)
60: Plant response rating, Foxtail, Giant (giant foxtail [3]; 125 g ai/ha) | Plant response rating, Morningglory (morningglory [13]; 125 g ai/ha) | Plant response rating, Barnyardgrass (barnyardgrass [14]; [18])
75: Plant response rating, Sedge, Umbrella (sedge, umbrella)
30: Corn plant response rating (corn [9]) | Wheat plant response rating (wheat [15])
80: Morningglory plant response rating (morningglory [2]) | Plant response rating, Foxtail, Giant (giant foxtail [10]) | Plant response rating, Velvetleaf (velvetleaf [11]; 125 g ai/ha) | Plant response rating, Corn (corn [12]; [19])
70: Plant response rating, Crabgrass, Large (large (Lg) crabgrass [1]; [18]) | Plant response rating, Ducksalad (Heteranthera limosa)
